The text below walks through data of ChEMBL document CHEMBL1143642, “Preparation of 3-spirocyclic indolin-2-ones as ligands for the ORL-1 receptor” (Bioorg Med Chem Lett, 2005).

pIC50: −log10 of the molar value.

Format in all cases: cell-based
Experiment [1] deals with Delta-type opioid receptor (Homo sapiens, UniProt P41143). The experiment is described as follows: Binding affinity against human opioid receptor delta 1 expressed in HEK293 cells using [3H]DDPDE radioligand.
Experiment [2] deals with T1, Nociceptin receptor (Homo sapiens, UniProt P41146). The experiment is described as follows: Binding affinity determined by the ability to compete with [125I]-Tyr14- nociceptin from binding to human opiate receptor-like 1 expressed in HEK293 cells.
Experiment [3] has as its target Kappa-type opioid receptor (Homo sapiens, UniProt P41145). Briefly: Binding affinity against human opioid receptor kappa 1 expressed in HEK293 cells using 3H-U69,593 radioligand.
Another experiment addresses Mu-type opioid receptor (Homo sapiens, UniProt P35372). The experiment is described as follows: Binding affinity against human opioid receptor mu 1 expressed in HEK293 cells using [3H]DAMGO radioligand.
In experiment [4] the target is T1, Nociceptin receptor. The experiment is described as follows: Ability to inhibit calcium flux in HEK293 cells overexpresses human opiate receptor-like 1 in the presence of 100 nM nociceptin. A general note: Calcium assays in cells follow changes in intracellular calcium, usually with a dye or a luminescent sensor.

T1 sequence (P41146 whole entry): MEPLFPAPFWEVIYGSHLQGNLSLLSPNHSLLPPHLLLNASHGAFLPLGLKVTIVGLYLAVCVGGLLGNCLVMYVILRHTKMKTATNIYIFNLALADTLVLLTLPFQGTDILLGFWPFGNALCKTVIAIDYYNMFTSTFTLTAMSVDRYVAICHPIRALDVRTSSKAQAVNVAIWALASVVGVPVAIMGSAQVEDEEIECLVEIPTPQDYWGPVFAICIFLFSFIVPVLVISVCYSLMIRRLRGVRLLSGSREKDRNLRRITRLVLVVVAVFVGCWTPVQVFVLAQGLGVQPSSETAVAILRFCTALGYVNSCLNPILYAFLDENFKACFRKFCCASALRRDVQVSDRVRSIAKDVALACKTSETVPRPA
Delta-type opioid receptor, sequence (P41143 whole entry): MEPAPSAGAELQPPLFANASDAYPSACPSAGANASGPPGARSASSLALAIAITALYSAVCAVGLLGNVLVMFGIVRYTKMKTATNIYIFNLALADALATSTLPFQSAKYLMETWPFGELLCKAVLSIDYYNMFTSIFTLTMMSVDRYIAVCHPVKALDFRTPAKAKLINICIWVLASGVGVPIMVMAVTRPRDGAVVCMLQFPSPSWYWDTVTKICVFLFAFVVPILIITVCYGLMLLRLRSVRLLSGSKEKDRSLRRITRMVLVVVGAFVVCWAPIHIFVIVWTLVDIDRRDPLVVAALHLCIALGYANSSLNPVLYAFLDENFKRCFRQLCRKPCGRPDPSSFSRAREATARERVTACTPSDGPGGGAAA
Kappa-type opioid receptor, sequence (P41145 whole entry): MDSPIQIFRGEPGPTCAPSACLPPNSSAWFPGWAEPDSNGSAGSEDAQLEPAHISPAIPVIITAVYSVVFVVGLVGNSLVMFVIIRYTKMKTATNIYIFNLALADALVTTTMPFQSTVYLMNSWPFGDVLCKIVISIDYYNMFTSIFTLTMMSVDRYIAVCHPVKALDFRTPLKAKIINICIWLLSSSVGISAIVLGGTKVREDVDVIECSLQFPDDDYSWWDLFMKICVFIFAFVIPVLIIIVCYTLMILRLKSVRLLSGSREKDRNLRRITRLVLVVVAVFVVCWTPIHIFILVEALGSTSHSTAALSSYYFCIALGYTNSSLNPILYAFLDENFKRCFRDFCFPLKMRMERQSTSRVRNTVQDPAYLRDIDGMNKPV
Mu-type opioid receptor, sequence (P35372 whole entry): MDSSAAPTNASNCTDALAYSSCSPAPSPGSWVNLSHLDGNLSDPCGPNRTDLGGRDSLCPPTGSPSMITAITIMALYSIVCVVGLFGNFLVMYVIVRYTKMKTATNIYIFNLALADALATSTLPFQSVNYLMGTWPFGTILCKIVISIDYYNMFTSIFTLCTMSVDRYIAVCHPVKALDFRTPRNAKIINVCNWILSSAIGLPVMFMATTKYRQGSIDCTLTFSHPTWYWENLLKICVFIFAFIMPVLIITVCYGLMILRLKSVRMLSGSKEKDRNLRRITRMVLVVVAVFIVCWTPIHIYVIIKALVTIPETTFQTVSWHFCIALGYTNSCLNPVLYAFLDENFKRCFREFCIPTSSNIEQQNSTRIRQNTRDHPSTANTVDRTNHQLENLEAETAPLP

In the case of `COC(=O)CN1C(=O)C2(CCN(CC3CCCCCCC3)CC2)c2ccccc21`, the pIC50 (as a rule, the negative decadic logarithm of the IC50, by convention in mol/L) in experiment [1] was < 5.00.
Turning to `COc1ccc2c(c1)N(CC1CC1)C(=O)C21CCN(CC2CCCCCCC2)CC1`, the pIC50 was < 5.00 on Nociceptin receptor [2], < 5.00 in experiment [3], < 5.00 in experiment [1] and 5.00 on Mu-type opioid receptor.
As for `CCN(Cc1ccc(C)cc1)CC(O)CN1C(=O)C2(CCN(CC3CCCCCCC3)CC2)c2ccccc21` (centres undefined), the pIC50 in experiment [1] is < 5.00.
As to `COC(=O)CN1C(=O)C2(CCN(Cc3ccc(-c4ccccc4)cc3)CC2)c2ccccc21`, at Nociceptin receptor [2], the pIC50 is 5.00.
For the molecule `O=C1N(CC(O)CNCCN2CCOCC2)c2ccccc2C12CCN(CC1CCCCCCC1)CC2` (centres undefined), the pIC50 in experiment [1] is < 5.00.
As for `COC(=O)CN1C(=O)C2(CCN(C(=O)C3CCC(OC)CC3)CC2)c2ccccc21` (centres undefined), the pIC50 on Nociceptin receptor [2] is < 5.00.
Regarding `Cc1cccc2c1C1(CCN(CC3CCCCCCC3)CC1)C(=O)N2C`, the inhibition (usually how much of the control response was suppressed) at Nociceptin receptor [4] is 81%. The pIC50 in experiment [1] is < 5.00.
As for `O=C1N(CC2CO2)c2ccccc2C12CCN(CC1CCCCCCC1)CC2` (centres undefined), the pIC50 in experiment [1] was < 5.00.
For the molecule `CN1C(=O)C2(CCN(CC3CCCCCCC3)CC2)c2cc(F)ccc21`, the inhibition on Nociceptin receptor [4] came out at 66%.
In turn, `Cc1ccc2c(c1)C1(CCN(CC3CCCCCCC3)CC1)C(=O)N2C` gave a pIC50 in experiment [1] of 5.03.
Regarding `CCCCCCC(CCCC)CN1CCC2(CC1)C(=O)N(CC(=O)OC)c1ccccc12` (centres undefined), at Nociceptin receptor [2], the pIC50 was 5.00.
Regarding `COc1ccc2c(c1)N(C)C(=O)C21CCN(CC2CCCCCCC2)CC1`, in experiment [1], the pIC50 is < 5.00.
At Nociceptin receptor [2], `COC(=O)CN1C(=O)C2(CCN(c3ccc4c5c(cccc35)CC4)CC2)c2ccccc21` gave a pIC50 of 6.46.
Consider `CC(=O)OCCN1C(=O)C2(CCN(CC3CCCCCCC3)CC2)c2ccccc21`, for which, in experiment [1], the pIC50 was < 5.00.
For the molecule `O=C1N(Cc2ccccc2)c2ccccc2C12CCN(CC1CCCCCCC1)CC2`, in experiment [1], the pIC50 was < 5.00.
`COC(=O)CN1C(=O)C2(CCN(C(C)c3ccccc3)CC2)c2ccccc21` (centres undefined): the pIC50 at Nociceptin receptor [2] is 5.00.
Regarding `Cc1ccc2c(c1)N(C)C(=O)C21CCN(CC2CCCCCCC2)CC1`, the inhibition on Nociceptin receptor [4] stood at 48%.
Take `CC(C)c1ccc2c(c1)C1(CCN(CC3CCCCCCC3)CC1)C(=O)N2C`: the pIC50 in experiment [1] was < 5.00.
For the molecule `COC(=O)CN1C(=O)C2(CCN(C(=O)CCC(=O)c3ccccc3)CC2)c2ccccc21`, at Nociceptin receptor [2], the pIC50 is < 5.00.
With `O=C(O)CN1C(=O)C2(CCN(CC3CCCCCCC3)CC2)c2ccccc21`, on Nociceptin receptor [2] (hek293), the pIC50 is > 5.00.
For `COC(=O)CN1C(=O)C2(CCN(Cc3ccccc3-c3ccsc3)CC2)c2ccccc21`, the pIC50 on Nociceptin receptor [2] was 5.00.
For `CN1C(=O)C2(CCN(CC3CCCCCCC3)CC2)c2ccccc21`, the pIC50 in experiment [1] was < 5.00.
For the molecule `CCN1C(=O)C2(CCN(CC3CCCCCCC3)CC2)c2ccc(OC)cc21`, the pIC50 in experiment [1] is < 5.00.
Take `O=C1Nc2ccccc2C12CCN(CC1CCCCCCC1)CC2`: the inhibition at Nociceptin receptor [4] came out at 45%. Besides, the pIC50 in experiment [1] is < 5.00.
